Test results: patent publication US9115133B2, “Substituted fused tricyclic compounds, compositions and medicinal applications thereof” (Advinus Therapeutics Limited, priority 2011, dated 2015)

Assays:
[1] = target: T1, Recombinant JAK3 (Amino acids 781-1124) (Homo sapiens, UniProt P52333); assay: Kinase-Glo Luminescent Kinase Assay, recombinant JAK3; assay type: biochemical; conditions: 200 μg/ml Poly Glu-Tyr (4:1), ATP 1 uM, 90 min room temperature, luminescence
T1 construct: JAK3 (Amino acids 781-1124; NM_000215.3); made in house; host or cells: baculovirus expression system (Bac-to-Bac)
T1 sequence (P52333 781-1124): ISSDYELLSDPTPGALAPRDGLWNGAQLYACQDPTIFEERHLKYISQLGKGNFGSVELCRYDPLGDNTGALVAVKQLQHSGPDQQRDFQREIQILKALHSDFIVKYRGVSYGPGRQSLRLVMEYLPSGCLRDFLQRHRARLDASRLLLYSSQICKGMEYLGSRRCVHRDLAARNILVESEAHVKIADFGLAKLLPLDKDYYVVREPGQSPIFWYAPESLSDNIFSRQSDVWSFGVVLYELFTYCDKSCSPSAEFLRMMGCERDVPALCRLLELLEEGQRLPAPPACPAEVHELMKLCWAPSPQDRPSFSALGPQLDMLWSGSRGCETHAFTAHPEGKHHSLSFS
Text: (§1) Recombinant JAK1 (Amino acids 850-1154; NM_002227.2), JAK2 (Amino acids 808-1132; NM_004972.3) and JAK3 (Amino acids 781-1124; NM_000215.3) used in the studies were expressed using Invitrogen's Bac-to-Bac baculovirus expression system according to manufacturer's instructions. Adenosine 5′-triphosphate was obtained from Sigma Aldrich chemicals (Cat # A7699). Poly Glu-Tyr (4:1) sodium salt was obtained from Sigma Aldrich (Cat # P0275), Kinase Glo® Luminescent Kinase assay kit was obtained from Promega (Cat # V6713) Kinase activity was assessed by Promega Kinase-Glo® Luminescent Kinase Assay kit using 200 μg/ml Poly Glu-Tyr (4:1) as substrate and ATP at 1 uM concentration. The reactions were carried out in 384 well plates in total reaction volume of 20 uL. Reaction mixtures contained 50 mM HEPES pH 7.4, 5 mM MgCl2, 1 mM DTT, 0.01% BSA, 0.01% Tween 20. Kinase was pre-incubated with compounds or 1% DMSO for 5 min before addition of substrate and ATP to check for inhibition. Kinase reactions were carried out at room temperature for 90 min. The reactions were stopped by adding 5 μl of Kinase Glo® reagent & 10 μl of reaction mixture followed by measuring luminescence. The luminescent signal is correlated with the amount of ATP present at the end of kinase reaction and is inversely correlated with the amount of kinase activity. For each data point, % inhibition is calculated based on uninhibited reaction (without compound) which is considered as 100% activity over no enzyme or substrate controls. Dose response data is then fit using a four parameter logistic equation using Graph-pad Prism 5 software to determine inhibition constant 50 (IC50).

[2] = target: T2, Recombinant JAK1 (Amino acids 850-1154) (Homo sapiens, UniProt P23458); assay: Kinase-Glo Luminescent Kinase Assay, recombinant JAK1; assay type: biochemical; conditions: 200 μg/ml Poly Glu-Tyr (4:1), ATP 1 uM, 90 min room temperature, luminescence
T2 construct: Recombinant JAK1 (Amino acids 850-1154; NM_002227.2); made in house; host or cells: baculovirus expression system (Bac-to-Bac)
T2 sequence (P23458 850-1154): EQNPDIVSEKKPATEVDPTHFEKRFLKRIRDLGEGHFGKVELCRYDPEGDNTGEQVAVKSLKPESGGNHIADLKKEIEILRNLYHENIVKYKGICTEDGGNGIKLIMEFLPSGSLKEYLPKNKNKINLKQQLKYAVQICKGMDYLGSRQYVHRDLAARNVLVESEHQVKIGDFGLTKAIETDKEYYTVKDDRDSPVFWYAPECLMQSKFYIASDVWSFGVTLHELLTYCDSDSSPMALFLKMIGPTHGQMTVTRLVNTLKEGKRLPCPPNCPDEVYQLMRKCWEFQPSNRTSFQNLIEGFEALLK
Text: as §1

Row | Compound | IC50 [1] [nM] | IC50 [2] [nM]
1 | CC(C)(C)OC(=O)N1CCCC(c2ccnc3cnc4[nH]ccc4c23)C1 (stereo not drawn) [Comp. 41, tert-butyl 3-(3H-pyrrolo[3,2-f][1,7]naphthyridin-9-yl)piperidine-1-carboxylate] | 1 to 20 | 1 to 20
2 | CC(C)(C)OC(=O)N1CCC(c2ccnc3cnc4[nH]ccc4c23)C1 (stereo not drawn) [Comp. 50, tert-butyl 3-(3H-pyrrolo[3,2-f][1,7]naphthyridin-9-yl)pyrrolidine-1-carboxylate] | > 20 | 1 to 20
3 | CC(C)CC(=O)N1CCCC(c2ccnc3cnc4[nH]ccc4c23)C1 (stereo not drawn) [Ex. 5, 3-methyl-1-[3-(3H-pyrrolo[3,2-f][1,7]naphthyridin-9-yl)-1-piperidyl]butan-1-one] | > 20 | 1 to 20
4 | CC(C)CS(=O)(=O)N1CCCC(c2ccnc3cnc4[nH]ccc4c23)C1 (stereo not drawn) [Ex. 8, 9-(1-isobutylsulfonyl-3-piperidyl)-3H-pyrrolo[3,2-f][1,7]naphthyridine] | 1 to 20 | 1 to 20
5 | CC(C)CNC(=O)C1CCCN(c2ccnc3cnc4[nH]ccc4c23)C1 (stereo not drawn) [Ex. 67, N-isobutyl-1-(3H-pyrrolo[3,2-f][1,7]naphthyridin-9-yl)piperidine-3-carboxamide] | > 20 | > 20
6 | O=C(CC(F)(F)F)N1CC=C(c2ccnc3cnc4[nH]ccc4c23)C1 [Ex. 42, 3,3,3-trifluoro-1-[3-(3H-pyrrolo[3,2-f][1,7]naphthyridin-9-yl)-2,5-dihyropyrrol-1-yl]propan-1-one] | > 20 | 
7 | NC1CCN(c2ccnc3cnc4[nH]ccc4c23)C1 (stereo not drawn) [Comp. 125, 1-(3H-pyrrolo[3,2-f][1,7]naphthyridin-9-yl)pyrrolidin-3-amine] | > 20 | 
8 | CN(C(=O)C1CCCC1)C1CCCN(c2ccnc3cnc4[nH]ccc4c23)C1 (stereo not drawn) [Ex. 66, N-methyl-N-[1-(3H-pyrrolo[3,2-f][1,7]naphthyridin-9-yl)-3-piperidyl]cyclopentane-carboxamide] | > 20 | 
9 | N#CCS(=O)(=O)N1CCCC(c2ccnc3cnc4[nH]ccc4c23)C1 (stereo not drawn) [Ex. 7, 2-[[3-(3H-pyrrolo[3,2-f][1,7]naphthyridin-9-yl)-1-piperidyl]sulfonyl]acetonitrile] | 1 to 20 | 1 to 20
10 | CC(C)CS(=O)(=O)N1CCC(c2ncnc3cnc4[nH]ccc4c23)C1 (stereo not drawn) [Ex. 40, 9-[1-(2-Methyl-propane-1-sulfonyl)-pyrrolidin-3-yl]-3H-3,4,6,8-tetraaza-cyclopenta[a]naphthalene] | > 20 | 
11 | c1cc(N2CCCC(N3CCOCC3)C2)c2c(cnc3[nH]ccc32)n1 (stereo not drawn) [Ex. 70, 4-[1-(3H-pyrrolo[3,2-f][1,7]naphthyridin-9-yl)-3-piperidiyl] morpholine] | > 20 | 
12 | COCCNC(=O)C1CCCN(c2ccnc3cnc4[nH]ccc4c23)C1 (stereo not drawn) [Ex. 69, N-(2-methoxyethyl)-1-(3H-pyrrolo[3,2-f][1,7]naphthyridin-9-yl)piperidine-3-carboxamide] | > 20 | 
13 | CC(C)C(=O)N1CCC(c2ncnc3cnc4[nH]ccc4c23)C1 (stereo not drawn) [Ex. 36, 2-Methyl-1-[3-(3H-3,4,6,8-tetraaza-cyclopenta[a]naphthalen-9-yl)-pyrrolidin-1-yl]-propan-1-one] | > 20 | 
14 | N#CCC(=O)N1CCC(c2ncnc3cnc4[nH]ccc4c23)C1 (stereo not drawn) [Ex. 34, 3-Oxo-3-[3-(3H-3,4,6,8-tetraaza-cyclopenta[a]naphthalen-9-yl)-pyrrolidin-1-yl]-propionitrile] | > 20 | 
15 | CC(C)(C)OC(=O)N1CCN(c2ccnc3cnc4[nH]ccc4c23)CC1 [Comp. 127, tert-butyl 4-(3H-pyrrolo[3,2-f][1,7]naphthyridin-9-yl)piperazine-1-carboxylate] | > 20 | > 20
16 | O=C(CCC(F)(F)F)N1CCC(c2ncnc3cnc4[nH]ccc4c23)C1 (stereo not drawn) [Ex. 37, 4,4,4-Trifluoro-1-[3-(3H-3,4,6,8-tetraaza-cyclopenta[a]naphthalen-9-yl)-pyrrolidin-1-yl]-butan-1-one] | > 20 | 
17 | O=C(CC(F)(F)F)N1CCC[C@@H](c2ccnc3cnc4[nH]ccc4c23)C1 [Ex. 4B, (S)3,3,3-trifluoro-1-[3-(3H-pyrrolo[3,2-f][1,7]naphthyridin-9-yl)-1-piperidyl]propan-1-one] | > 20 | 
18 | O=C(C1CC1)N1CCC(c2ncnc3cnc4[nH]ccc4c23)C1 (stereo not drawn) [Ex. 35, Cyclopropyl-[3-(3H-3,4,6,8-tetraaza-cyclopenta[a]naphthalen-9-yl)-pyrrolidin-1-yl]-methanone] | > 20 | 
19 | CC(C)(C)C(=O)N1CCC(c2ncnc3cnc4[nH]ccc4c23)C1 (stereo not drawn) [Ex. 38, 2,2-Dimethyl-1-[3-(3H-3,4,6,8-tetraaza-cyclopenta[a]naphthalen-9-yl)-pyrrolidin-1-yl]-propan-1-one] | > 20 | 
20 | CCOC(=O)c1cnc2cnc3c(ccn3S(=O)(=O)c3ccc(C)cc3)c2c1O [Comp. 8, Ethyl 9-hydroxy-3-(p-tolylsulfonyl)pyrrolo[3,2-f][1,7]naphthyridine-8-carboxylate] | > 20 | 
21 | c1cc(N2CCOCC2)c2c(cnc3[nH]ccc32)n1 [Ex. 64, 4-(3H-pyrrolo[3,2-f][1,7]naphthyridin-9-yl)morpholine] | > 20 | 
22 | O=C(CC(F)(F)F)N1CCC(c2ncnc3cnc4[nH]ccc4c23)C1 (stereo not drawn) [Ex. 33, 3,3,3-Trifluoro-1-[3-(3H-3,4,6,8-tetraaza-cyclopenta[a]naphthalen-9-yl)-pyrrolidin-1-yl]-propan-1-one] | > 20 | 
23 | N#CCC(=O)N1CC=C(c2ccnc3cnc4[nH]ccc4c23)C1 [Ex. 41, 3-oxo-3-[3-(3H-pyrrolo[3,2-f][1,7]naphthyridin-9-yl)-2,5-dihydropyrrolo-1-yl]propanenitrile] | > 20 | 

Results, then the molecule that gave them:

Row | IC50 [1] [nM] | IC50 [2] [nM] | Compound
24 | 1 to 20 | > 20 | CC1CCC(C(=O)NC2CC2)CN1c1ccnc2cnc3[nH]ccc3c12 (single isomer, unassigned) [Ex. 88A, cis-N-cyclopropyl-6-methyl-1-(3H-pyrrolo[3,2-f][1,7]naphthyridin-9-yl)piperidine-3-carboxamide]
25 | 1 to 20 | 1 to 20 | CN(CC(F)(F)F)C(=O)C1CCCN(c2ccnc3cnc4[nH]ccc4c23)C1 (stereo not drawn) [Ex. 80, N-methyl-1-(3H-pyrrolo[3,2-f][1,7]naphthyridin-9-yl)-N-(2,2,2-trifluoroethyl)piperidine-3-carboxamide]
26 | 1 to 20 | > 20 | CS(=O)(=O)NC1CCCN(c2ccnc3cnc4[nH]ccc4c23)C1 (stereo not drawn) [Ex. 73, N-[1-(3H-pyrrolo[3,2-f][1,7]naphthyridin-9-yl)-3-piperidyl] methanesulfonamide]
27 | > 20 |  | CC(C)NC(=O)NC1CCN(c2ccnc3cnc4[nH]ccc4c23)C1 (stereo not drawn) [Ex. 95, 1-isopropyl-3-[1-(3H-pyrrolo[3,2-f][1,7]naphthyridin-9-yl)pyrrolidin-3-yl]urea]
28 | > 20 |  | N#CCC(=O)NC1CCN(c2ccnc3cnc4[nH]ccc4c23)C1 (stereo not drawn) [Ex. 99, 2-cyano-N-[1-(3H-pyrrolo[3,2-f][1,7]naphthyridin-9-yl)pyrrolidin-3-yl]acetamide]
29 | > 20 |  | CC(C)CS(=O)(=O)NC1CCN(c2ccnc3cnc4[nH]ccc4c23)C1 (stereo not drawn) [Ex. 93, 2-methyl-N-[1-(3H-pyrrolo[3,2-f][1,7]naphthyridin-9-yl)pyrrolidin-3-yl]propane-1-sulfonamide]
30 | 1 to 20 |  | CS(=O)(=O)NC1CCN(c2ccnc3cnc4[nH]ccc4c23)C1 (stereo not drawn) [Ex. 101, N-[1-(3H-pyrrolo[3,2-f][1,7]naphthyridin-9-yl)pyrrolidin-3-yl]methanesulfonamide]
31 | 1 to 20 |  | N#CCS(=O)(=O)NC1CCN(c2ccnc3cnc4[nH]ccc4c23)C1 (stereo not drawn) [Ex. 94, 1-cyano-N-[1-(3H-pyrrolo[3,2-f][1,7]naphthyridin-9-yl)pyrrolidin-3-yl]methanesulfonamide]
32 | > 20 |  | O=C(NC1CCN(c2ccnc3cnc4[nH]ccc4c23)C1)C1CC1 (stereo not drawn) [Ex. 96, N-[1-(3H-pyrrolo[3,2-f][1,7]naphthyridin-9-yl)pyrrolidin-3-yl]cyclopropanecarbox-amide]
33 | > 20 |  | CC(C)C(=O)NC1CCN(c2ccnc3cnc4[nH]ccc4c23)C1 (stereo not drawn) [Ex. 97, 2-methyl-N-[1-(3H-pyrrolo[3,2-f][1,7]naphthyridin-9-yl)pyrrolidin-3-yl]propanamide]
34 | > 20 |  | O=C(CC1CC1)NC1CCN(c2ccnc3cnc4[nH]ccc4c23)C1 (stereo not drawn) [Ex. 98, 2-cyclopropyl-N-[1-(3H-pyrrolo[3,2-f][1,7]naphthyridin-9-yl)pyrrolidin-3-yl]acetamide]
35 | 1 to 20 |  | O=C(CC(F)(F)F)NC1CCN(c2ccnc3cnc4[nH]ccc4c23)C1 (stereo not drawn) [Ex. 100, 3,3,3-trifluoro-N-[1-(3H-pyrrolo[3,2-f][1,7]naphthyridin-9-yl)pyrrolidin-3-yl]propanamide]
